Like-named read-outs stand apart in the source and are kept apart here.

The values below come from PMC6572184, “New γ-Halo-δ-lactones and δ-Hydroxy-γ-lactones with Strong Cytotoxic Activity” (Molecules, 2019).

One series has as its system gastric cancer AGS cells. Details: method as in PMID 23792648. The following applies: reference anticancer drug; cited from earlier work.
Series [1] is described as follows: MTT reduction cytotoxicity assay. The class given is cell-based, mouse. The note with it: mouse, L929 cells (mouse fibroblasts), read-out: mean percentage of viable cells ± SD.
In series [2] the test system is AGS cell lines (human gastric adenocarcinoma). Briefly: MTT reduction cytotoxicity assay. The note with it: Homo sapiens. The class given is cell-based.
Series [3] is described as follows: MTT reduction cytotoxicity assay. Format: cell-based, human. The following applies: human, AGS cells (human gastric adenocarcinoma), 24 h, read-out: mean percentage of viable cells ± SD.
Series [4] in a line: Observation of purified γ-iodo-δ-lactone isomers (decomposition, translactonization). The note with it: purified trans,trans and cis,trans γ-iodo-δ-lactones; residue an equimolar mixture of trans and cis hydroxylactones. The class given is physicochemical. The method, then:
Iodolactonization of 4a–c acids was carried out with I2/KI and NaHCO3 in a water/diethyl ether mixture. […] The yield of reactions was in the range of 69–85%. The reaction conditions prevented the direct synthesis of these compounds because the reaction was carried out in an alkaline solution, whereas hydroxylactonization requires an acidic environment. […] and predominantly formed in this reaction. The excess of trans-isomer is usually observed in the synthesis of γ -lactones. However, the reaction initially gave δ -iodo- γ -lactones, which, through a translactonization reaction, were transformed into the final products–hydroxylactones 12a and 13a. This was confirmed by observations of purified isomers trans,trans and cis,trans γ -iodo- δ -lactones 9b and 10b, and 9c and 10c. […] The carbocation was stabilized by the electron lone pairs of the oxygen atom present in the water molecule. The preparation of hydroxylactones from iodolactones has been described thus far only for biotransformation experiments. The synthesis described here allows obtaining these compounds without microorganisms.

The test system of series [5] is Staphylococcus aureus ATCC 65389. Briefly: Bactericidal activity, CFU counting method. Format: cell-based. The following applies: S. aureus ATCC 65389; 18 h at 37 °C; Control 21.36, Control with DMSO 20.85. An outline of the steps: (§1)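 Bacteria were grown 18 h on LB agar and suspended to 0.5 McFarland in 0.85% saline. Suspensions were mixed with enriched broth and compound (0.1–50 μg/mL, in DMSO) and incubated 18 h at 37 °C. Survivors were counted by CFU, with three repeats, a DMSO negative control and gentamicin as reference.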

The test system of series [6] is Escherichia coli ATCC 8739. Briefly: Bactericidal activity, CFU counting method. The note with it: E. coli ATCC 8739; 18 h at 37 °C; Control 9.47, Control with DMSO 9.30. The class given is cell-based. The method, boiled down:
as §1

For the molecule `COc1cccc2c1C(=O)c1c(O)c3c(c(O)c1C2=O)C[C@@](O)(C(=O)CO)C[C@@H]3O[C@H]1C[C@H](N)[C@H](O)[C@H](C)O1` [doxorubicin], the half-maximal inhibitory concentration (IC50) in the series on gastric cancer AGS cells is 25 nM.
In the case of `CC1CC(=O)OC(c2ccccc2)C1I` (stereo not drawn) [9b, Trans,trans-tetrahydro-5-iodo-4-methyl-6-phenylpyran-2-one], the melting point fell in the range of 107 to 108 °C. Besides, the viability at 24 h, 0.1 μg/mL in series [1] (0.1 μg/mL) came out at 23 ± 0.03%. In series [1] (0.5 μg/mL), the viability at 24 h, 0.5 μg/mL stood at 18 ± 0.03%. Moreover, the viability at 24 h, 5 μg/mL in series [1] (5 μg/mL) worked out at 13 ± 0.07%. Moreover, in series [1] (10 μg/mL), the viability at 24 h, 10 μg/mL is 11 ± 0.06%. Moreover, the viability at 24 h, 20 μg/mL in series [1] (20 μg/mL) was 4 ± 0.15%. In addition, in series [1] (50 μg/mL), the viability at 24 h, 50 μg/mL is 1 ± 0.12%. This molecule also registered an IC50 in series [2] of 1400 nM. The viability at 24 h, 0.1 μg/mL in series [3] (0.1 μg/mL) was found to be 54 ± 0.15%. The viability at 24 h, 0.5 μg/mL in series [3] (0.5 μg/mL) amounted to 52 ± 0.15%. The viability at 24 h, 5 μg/mL in series [3] (5 μg/mL) is 43 ± 0.12%. Also, the viability at 24 h, 10 μg/mL in series [3] (10 μg/mL) worked out at 26 ± 0.03%. Moreover, in series [3] (20 μg/mL), the viability at 24 h, 20 μg/mL came to 15 ± 0.06%. Further, in series [3] (50 μg/mL), the viability at 24 h, 50 μg/mL came to 8 ± 0.09%. Moreover, the “stability of purified isomer (in words)” value in series [4] is recorded as “rapid decomposition with release of iodine”. For the same molecule, in series [5], the “Number of CFU/mL (× 10^7)” value is 21.25 × 10^7 CFU/mL. The “Number of CFU/mL (× 10^7)” value in series [6] was 9.02 × 10^7 CFU/mL.
